For the data set the following is noted: Liquid.

Molecules are shown by their SMILES. Numbers after ± are expanded uncertainties.

In the case of `CC(F)(F)F` [1,1,1-trifluoroethane], the “vapor or sublimation pressure” value stood at 620 ± 4 kPa (273.15 K); 837 ± 5 kPa (283.15 K); 1104 ± 7 kPa (293.15 K); 1432 ± 9 kPa (303.15 K); 1830 ± 11 kPa (313.15 K); 2298 ± 14 kPa (323.15 K).
`CCCC` [butane]: the “vapor or sublimation pressure” value reads like this: (273.15 K) 104 ± 2 kPa; (283.15 K) 150 ± 2 kPa; (293.15 K) 208 ± 2 kPa; (303.15 K) 284 ± 3 kPa; (313.15 K) 378 ± 3 kPa; (323.15 K) 494 ± 4 kPa.

The vapor or sublimation pressure is the pressure of vapour in equilibrium with the condensed phase.

The record behind these values is the NIST ThermoML archive (doi:10.1021/je700725j).
